What is called IC50 is the concentration needed to halve the response being measured.

For the assay, the target named is T1, cPLA2 (Homo sapiens, UniProt P47712).
T1 sequence (P47712 1-749): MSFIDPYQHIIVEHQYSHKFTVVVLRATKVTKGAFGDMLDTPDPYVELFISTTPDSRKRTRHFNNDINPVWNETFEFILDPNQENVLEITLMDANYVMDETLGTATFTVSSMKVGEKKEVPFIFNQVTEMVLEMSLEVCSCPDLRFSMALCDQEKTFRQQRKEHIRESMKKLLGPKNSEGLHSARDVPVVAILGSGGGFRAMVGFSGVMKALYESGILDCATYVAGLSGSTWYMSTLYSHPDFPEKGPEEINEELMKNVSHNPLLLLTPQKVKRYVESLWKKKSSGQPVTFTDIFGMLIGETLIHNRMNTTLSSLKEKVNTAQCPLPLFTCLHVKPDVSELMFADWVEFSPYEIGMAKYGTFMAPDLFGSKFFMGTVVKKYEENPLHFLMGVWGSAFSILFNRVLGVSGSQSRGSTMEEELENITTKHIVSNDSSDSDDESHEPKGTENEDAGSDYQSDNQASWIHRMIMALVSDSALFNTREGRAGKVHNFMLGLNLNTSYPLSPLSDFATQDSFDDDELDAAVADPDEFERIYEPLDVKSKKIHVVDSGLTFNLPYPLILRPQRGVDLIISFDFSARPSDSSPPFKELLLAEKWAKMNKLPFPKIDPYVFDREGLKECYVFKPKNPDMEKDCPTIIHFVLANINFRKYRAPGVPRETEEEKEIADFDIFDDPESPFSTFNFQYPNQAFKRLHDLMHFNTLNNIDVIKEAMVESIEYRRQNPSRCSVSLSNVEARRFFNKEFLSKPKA
In words: Coumarine Assay. The following applies: 60 μM 7-hydroxycoumarinyl 6-heptenoate substrate, 4 μg cPLA2, pH 7.5, fluorescence ex 360 nm / em 460 nm; read-out: Coumarin IC50. The class given is biochemical.

Method: Inhibitors were mixed with 200 μL assay buffer (80 mM Heped, pH 7.5, 1 mM EDTA) containing 60 μM 7-hydroxycoumarinyl 6-heptenoate. The reaction was initiated by adding 4 μg cPLA2 in 50 μL assay buffer. Hydrolysis of the 7-hydroxycounarimyl 6-heptenoate ester was monitored in a fluorometer by exciting at 360 nm and monitoring emission at 460 nm. Enzyme activity is proportional to the increase in emission at 460 nm per minute. In the presence of a cPLA2 inhibitor, the rate of increase is less.

On to `COc1cccc(CS(=O)(=O)NCCc2c(CCCc3ccc(C(=O)O)cc3)c3cc(Cl)ccc3n2C(c2ccccc2)c2ccccc2)c1` [Example 68, 4-{3-[1-benzhydryl-5-chloro-2-(2-{[(3-methoxybenzyl)sulfonyl]amino}ethyl)-1H-indol-3-yl]propyl}benzoic acid], for which the IC50 worked out at 160 nM.

For `Nc1ccccc1CS(=O)(=O)NCCc1c(CCCc2ccc(C(=O)O)cc2)c2cc(Cl)ccc2n1C(c1ccccc1)c1ccccc1` [Example 69, 4-{3-[2-(2-{[(2-aminobenzyl)sulfonyl]amino}ethyl)-1-benzhydryl-5-chloro-1H-indol-3-yl]propyl}benzoic acid], the half-maximal inhibitory concentration (IC50) turned out to be 150 nM.

As to `Cc1ccccc1CS(=O)(=O)NCCc1c(CCCc2ccc(C(=O)O)cc2)c2cc(Cl)ccc2n1C(c1ccccc1)c1ccccc1` [Example 70, 4-{3-[1-Benzhydryl-5-chloro-2-(2-{[(2-methylbenzyl)sulfonyl]amino}ethyl)-1H-indol-3-yl]propyl}benzoic acid], the IC50 was determined as 180 nM.

Turning to `O=C(O)c1ccc(OCCc2c(CCNS(=O)(=O)Cc3ccc(OC(F)(F)F)cc3)n(C(c3ccccc3)c3ccccc3)c3ccc(Cl)cc23)cc1` [Example 71, 4-{2-[1-Benzhydryl-5-chloro-2-(2-{[(4-trifluorometoxybenzyl)sulfonyl]amino}ethyl)-1H-indol-3-yl]ethoxy}benzoic acid], the 50% inhibitory concentration (IC50) was determined as 450 nM.

As to `O=C(O)c1ccc(OCCc2c(CCNS(=O)(=O)Cc3c(F)cccc3[N+](=O)[O-])n(C(c3ccccc3)c3ccccc3)c3ccc(Cl)cc23)cc1` [Example 72, 4-{2-[1-Benzhydryl-5-chloro-2-(2-{[(2-fluoro-6-nitrobenzyl)sulfonyl]amino}ethyl)-1H-indol-3-yl]ethoxy)benzoic acid], the concentration for half-maximal inhibition (IC50) turned out to be 280 nM.

`O=C(O)c1ccc(OCCc2c(CCNS(=O)(=O)Cc3c(Cl)cccc3Cl)n(C(c3ccccc3)c3ccccc3)c3ccc(Cl)cc23)cc1` [Example 73, 4-{2-[1-Benzhydryl-5-chloro-2-(2-{[(2-dichlorobenzyl)sulfonyl]amino}ethyl)-1H-indol-3-yl]ethoxy}benzoic acid]: the concentration for half-maximal inhibition (IC50) is 300 nM.

On to `O=C(O)c1ccc(OCCc2c(CCNS(=O)(=O)Cc3c(F)cccc3F)n(C(c3ccccc3)c3ccccc3)c3ccc(Cl)cc23)cc1` [Example 74], for which the IC50 came to 280 nM.

For `O=C(O)c1ccc(OCCc2c(CCNS(=O)(=O)Cc3ccc(Cl)nc3)n(C(c3ccccc3)c3ccccc3)c3ccc(Cl)cc23)cc1` [Example 75, 4-(2-{1-benzhydryl-5-chloro-2-[2-({[(6-chloro-3-pyridinyl)methyl]sulfonyl}amino)ethyl]-1H-indol-3-yl}ethoxy)benzoic acid], the IC50 came to 400 nM.

Regarding `O=C(O)c1ccc(OCCc2c(CCNS(=O)(=O)Cc3ccc(Cl)c(Cl)n3)n(C(c3ccccc3)c3ccccc3)c3ccc(Cl)cc23)cc1` [Example 76], the IC50 turned out to be 400 nM.

Consider `COc1cccc(CS(=O)(=O)NCCc2c(CCOc3ccc(C(=O)O)cc3)c3cc(Cl)ccc3n2C(c2ccccc2)c2ccccc2)c1` [Example 77, 4-{2-[1-Benzhydryl-5chloro-2-(2-{[(3-methoxybenzyl)sulfonyl]amino}ethyl)-1H-indol-3-yl]ethoxy}benzoic acid], for which the IC50 stood at 480 nM.

Regarding `Cc1cc(C)cc(CS(=O)(=O)NCCc2c(CCOc3ccc(C(=O)O)cc3)c3cc(Cl)ccc3n2C(c2ccccc2)c2ccccc2)c1` [Example 78, 4-{2-[1-Benzhydryl-5-chloro-2-(2-{[(3,5-dimethylbenzyl)sulfonyl]amino}ethyl)-1H-indol-3-yl]ethoxy)benzoic acid], the half-maximal inhibitory concentration (IC50) came to 340 nM.

With `Cc1ccccc1CS(=O)(=O)NCCc1c(CCOc2ccc(C(=O)O)cc2)c2cc(Cl)ccc2n1C(c1ccccc1)c1ccccc1` [Example 79, 4-{2-[1-Benzhydryl-5-chloro-2-(2-{[(2-methylbenzyl)sulfonyl]amino}ethyl)-1H-indol3-yl]ethoxy}benzoic acid], the IC50 came to 150 nM.

With `O=C(O)c1ccc(OCCc2c(CCNS(=O)(=O)Cc3c(Cl)cccc3Cl)n(C(c3ccccc3)c3ccccc3)c3ccc(Cl)cc23)cc1` [Example 80, 4-{2-[1-Benzhydryl-5-chloro-2-(2-{[(2,6-dichlorobenzyl)sulfonyl]amino}ethyl)-1H-indol-3-yl]ethoxy}benzoic acid], the IC50 worked out at 3700 nM.

Regarding `O=C(O)c1ccc(OCCc2c(CCNS(=O)(=O)CSc3ccccc3)n(C(c3ccccc3)c3ccccc3)c3ccc(Cl)cc23)cc1` [Example 81, 4-(2-{1-benzhydryl-5-chloro-2-[2-({[(phenylsulfanyl)methyl]sulfonyl}amino)ethyl]-1H-indol-3-yl}ethoxy)benzoic acid], the IC50 amounted to 470 nM.

For `Cc1cccc(C)c1SCS(=O)(=O)NCCc1c(CCOc2ccc(C(=O)O)cc2)c2cc(Cl)ccc2n1C(c1ccccc1)c1ccccc1` [Example 82], the IC50 worked out at 500 nM.

`COc1ccccc1SCS(=O)(=O)NCCc1c(CCOc2ccc(C(=O)O)cc2)c2cc(Cl)ccc2n1C(c1ccccc1)c1ccccc1` [Example 83]: the IC50 turned out to be 450 nM.

As for `Cc1cccc(Cl)c1SCS(=O)(=O)NCCc1c(CCOc2ccc(C(=O)O)cc2)c2cc(Cl)ccc2n1C(c1ccccc1)c1ccccc1` [Example 84], the half-inhibitory concentration (IC50) came out at 500 nM.

On to `O=C(O)c1ccc(OCCc2c(CCNS(=O)(=O)CSc3cc(Cl)cc(Cl)c3)n(C(c3ccccc3)c3ccccc3)c3ccc(Cl)cc23)cc1` [Example 85], for which the IC50 worked out at 400 nM.

Turning to `COc1ccc(SCS(=O)(=O)NCCc2c(CCOc3ccc(C(=O)O)cc3)c3cc(Cl)ccc3n2C(c2ccccc2)c2ccccc2)cc1OC` [Example 86], the half-inhibitory concentration (IC50) is 600 nM.

`O=C(O)c1ccc(OCCc2c(CCNS(=O)(=O)CCN3CCOCC3)n(C(c3ccccc3)c3ccccc3)c3ccc(Cl)cc23)cc1` [Example 87, 4-(2-{1-Benzhydryl-5-chloro-2-[2-(2-morpholin-4-ylethanesulfonylamino)-ethyl]-1H-indol-3-yl}-ethoxy)-benzoic acid]: the half-maximal inhibitory concentration (IC50) is 1200 nM.

Consider `O=C(O)c1ccc(OCCc2c(CCNS(=O)(=O)CCNc3ccccc3)n(C(c3ccccc3)c3ccccc3)c3ccc(Cl)cc23)cc1` [Example 89, 4-(2-{1-Benzhydryl-5-chloro-2-[2-(2-phenylamino-ethanesulfonylamino)-ethyl]-1H-indol-3-yl}-ethoxy)-benzoic acid], for which the IC50 was determined as 380 nM.

For the compound `O=C(O)c1ccc(OCCc2c(CCNS(=O)(=O)CCN3CCC4(CC3)OCCO4)n(C(c3ccccc3)c3ccccc3)c3ccc(Cl)cc23)cc1` [Example 90, 4-(2-{1-benzhydryl-5-chloro-2-[2-({[2-(1,4-dioxa-8-azaspiro[4.5]dec-8-yl)ethyl]sulfonyl}amino)ethyl]-1H-indol-3-yl}ethoxy)benzoic acid], the half-maximal inhibitory concentration (IC50) came out at 650 nM.

As to `O=C(O)c1ccc(OCCc2c(CCNS(=O)(=O)CCN3CCN(c4ccccn4)CC3)n(C(c3ccccc3)c3ccccc3)c3ccc(Cl)cc23)cc1` [Example 91, 4-[2-(1-benzhydryl-5-chloro-2-{2-[({2-[4-(2-pyridinyl)-1-piperazinyl]ethyl}sulfonyl)amino]ethyl}-1H-indol-3-yl)ethoxy]benzoic acid], the IC50 was 500 nM.

On to `Cc1cc(C)n(CCS(=O)(=O)NCCc2c(CCOc3ccc(C(=O)O)cc3)c3cc(Cl)ccc3n2C(c2ccccc2)c2ccccc2)n1` [Example 93, 4-(2-{1-benzhydryl-5-chloro-2-[2-({[2-(3,5-dimethyl-1H-pyrazol-1-yl)ethyl]sulfonyl}amino)ethyl]-1H-indol-3-yl}ethoxy)benzoic acid], for which the concentration for half-maximal inhibition (IC50) was found to be 560 nM.

In the case of `Cc1ccn(CCS(=O)(=O)NCCc2c(CCOc3ccc(C(=O)O)cc3)c3cc(Cl)ccc3n2C(c2ccccc2)c2ccccc2)n1` [Example 94, 4-(2-{1-benzhydryl-5-chloro-2-[2-({[2-(3-methyl-1H-pyrazol-1-yl)ethyl]sulfonyl}amino)ethyl]-1H-indol-3-yl}ethoxy)benzoic acid], the IC50 was 800 nM.

For the compound `Cc1cnn(CCS(=O)(=O)NCCc2c(CCOc3ccc(C(=O)O)cc3)c3cc(Cl)ccc3n2C(c2ccccc2)c2ccccc2)c1` [Example 95, 4-(2-{1-benzhydryl-5-chloro-2-[2-({[2-(4-methyl-1H-pyrazol-1-yl)ethyl]sulfonyl}amino)ethyl]-1H-indol-3-yl}ethoxy)benzoic acid], the 50% inhibitory concentration (IC50) turned out to be 850 nM.

Turning to `C[C@@H]1CCC[C@H](C)N1CCS(=O)(=O)NCCc1c(CCOc2ccc(C(=O)O)cc2)c2cc(Cl)ccc2n1C(c1ccccc1)c1ccccc1` [Example 96, 4-[2-(1-benzhydryl-5-chloro-2-{2-[({2-[(2R,6S)-2,6-dimethyl-1-piperidinyl]ethyl}sulfonyl)amino]ethyl}-1H-indol-3-yl)ethoxy]benzoic acid], the IC50 came out at 950 nM.

On to `O=C(O)c1ccc(OCCc2c(CCNS(=O)(=O)CCN3CCNC3=S)n(C(c3ccccc3)c3ccccc3)c3ccc(Cl)cc23)cc1` [Example 97, 4-(2-{1-benzhydryl-5-chloro-2-[2-({[2-(2-thioxo-1-imidazolidinyl)ethyl]sulfonyl}amino)ethyl]-1H-indol-3-yl}ethoxy)benzoic acid], for which the IC50 was found to be 950 nM.

The values above are taken from US6635771B2, “N-benzhydryl indole compounds” (Wyeth, priority 2001, dated 2003).
